Test results published in patent publication US10597391B2, “Urea-containing isoxazole derivatives as FXR agonists and methods of use thereof” (Enanta Pharmaceuticals, Inc., priority 2016, dated 2020).
“And” between values parts separate entries of the source, which are not always exact repeats. Equal values may be shown once. Read-outs that look alike come from different tables or passages of the source.

Biological target: T1, human FXR (NR1H4) (Homo sapiens, UniProt Q96RI1)
T1 sequence (Q96RI1 1-486): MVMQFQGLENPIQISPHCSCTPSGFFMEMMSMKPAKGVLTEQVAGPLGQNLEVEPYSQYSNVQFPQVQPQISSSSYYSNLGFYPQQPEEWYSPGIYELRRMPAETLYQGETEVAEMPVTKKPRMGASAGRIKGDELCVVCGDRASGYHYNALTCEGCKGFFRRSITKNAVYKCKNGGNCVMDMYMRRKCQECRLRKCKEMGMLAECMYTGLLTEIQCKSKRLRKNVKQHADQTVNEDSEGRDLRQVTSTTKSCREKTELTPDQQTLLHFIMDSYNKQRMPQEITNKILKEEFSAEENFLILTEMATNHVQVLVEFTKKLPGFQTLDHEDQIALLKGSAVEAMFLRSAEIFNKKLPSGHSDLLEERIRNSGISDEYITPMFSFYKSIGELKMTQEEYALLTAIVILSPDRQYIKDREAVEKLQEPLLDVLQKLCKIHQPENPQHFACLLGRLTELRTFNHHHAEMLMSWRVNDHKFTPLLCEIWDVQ
Assay: Human FXR (NR1H4) Assay: Gal4 promoter driven luciferase reporter transactivation in CHO cells (Indigo Bioscience kit IB00601)
Assay type: cell-based
Settings: for Emax: CHO, read-out: Efficacy (%); for EC50: potency range, Human FXR (NR1H4) reporter assay in CHO cells, read-out: EC50
Source text: Human FXR (NR1H4) Assay Determination of a ligand mediated Gal4 promoter driven transactivation to quantify ligand binding mediated activation of FXR. FXR Reporter Assay kit purchased from Indigo Bioscience (Catalogue number: IB00601) to determine the potency and efficacy of compounds that can induce FXR activation. The principle application of this reporter assay system is to quantify functional activity of human FXR. The assay utilizes non-human mammalian cells, CHO (Chinese hamster ovary) cells engineered to express human NR1H4 protein (referred to as FXR). Reporter cells also incorporate the cDNA encoding beetle luciferase which catalyzes the substrates and yields photon emission. Luminescence intensity of the reaction is quantified using a plate-reading luminometer, Envision. Reporter Cells include the luciferase reporter gene functionally linked to an FXR responsive promoter. Thus, quantifying changes in luciferase expression in the treated reporter cells provides a sensitive surrogate measure of the changes in FXR activity. […] The assay is according to the manufacturer's instructions. […] Retrieve Reporter Cells from −80° C. storage. Perform a rapid thaw of the frozen cells by transferring a 10 ml volume of 37° C. cell recovery medium into the tube of frozen cells. […] Retrieve the tube of Reporter Cell Suspension from the water bath. […] Dispense 90 μl of cell suspension into each well of the 96-well Assay Plate. Transfer the plate into 37° C. incubator, allowing the cells adherent to the bottom of the well. Dilute compounds in Dilution Plate (DP), and administrate to cells at Assay Plate (AP). […] Cells were incubated for additional 22 hours before luciferase activities were measured. Thirty minutes before intending to quantify FXR activity, remove Detection Substrate and Detection Buffer from the refrigerator and place them in a low-light area so that they may equilibrate to room temperature. Remove the plate's lid and discard all media contents by ejecting it into an appropriate waste container. Gently tap the inverted plate onto a clean absorbent paper towel to remove residual droplets. Cells will remain tightly adhered to well bottoms. Add 100 μl of luciferase detection reagent to each well of the assay plate. Allow the assay plate to rest at room temperature for at least 5 minutes following the addition of LDR. Set the instrument (Envision) to perform a single 5 second “plate shake” prior to reading the first assay well. Read time may be 0.5 second (500 mSec) per well.

[1] = efficacy normalized to CDCA set as 100%

SMILES	Emax [1] [%]	EC50	Emax [%]
CC(C)Oc1cc(C(=O)O)ccc1NC(=O)N1C2CCC1CC(OCc1c(-c3c(Cl)cccc3Cl)noc1C1CC1)C2 (centres unmarked) [Example 721]	133	10 to 100 nM	–
COC(=O)c1ccc(NC(=O)N2C3CCC2CC(OCc2c(-c4c(Cl)cccc4Cl)noc2C2CC2)C3)cc1-c1cnn(C)c1 (centres unmarked) [Example 774]	102	< 10 nM	–
COc1ccc(C(=O)O)cc1NC(=O)N1C2CCC1CC(OCc1c(-c3c(Cl)cccc3Cl)noc1C1CC1)C2 (centres unmarked) [Example 725]	140	100 to 1000 nM	–
O=C(O)c1ccc2c(c1)CCCN2C(=O)N1C2CCC1CC(OCc1c(-c3ccccc3OC(F)(F)F)noc1C1CC1)C2 (centres unmarked) [Example 594]	–	100 to 1000 nM	49
O=C(O)c1cc(NC(=O)N2C3CCC2CC(OCc2c(-c4c(Cl)cccc4Cl)noc2C2CC2)C3)cc(-c2cccnc2)c1 (centres unmarked) [Example 727]	–	10 to 100 nM and < 10 nM	–
O=C(O)c1cccc(NC(=O)N2C3CCC2CC(OCc2c(-c4ccccc4OC(F)(F)F)noc2C2CC2)C3)c1F (centres unmarked) [Example 746]	156	> 1000 nM	–
CCOC(=O)c1ccc2c(c1)CCN2C(=O)N1C2CCC1CC(OCc1c(-c3ccccc3OC(F)(F)F)noc1C1CC1)C2 (centres unmarked) [Example 591]	–	> 1000 nM	166
O=C(O)c1cccc(F)c1NC(=O)N1C2CCC1CC(OCc1c(-c3ccccc3OC(F)(F)F)noc1C1CC1)C2 (centres unmarked) [Example 768]	33	> 1000 nM	–
N#Cc1cccc(NC(=O)N2C3CCC2CC(OCc2c(-c4c(Cl)cccc4Cl)noc2C2CC2)C3)c1 (centres unmarked) [Example 3]	–	< 10 nM	–
COC(=O)c1ccc(OC)c(NC(=O)N2C3CCC2CC(OCc2c(-c4ccccc4OC(F)(F)F)noc2C2CC2)C3)c1 (centres unmarked) [Example 749]	104	10 to 100 nM	–
O=C(O)c1ccc(F)c(NC(=O)N2C3CCC2CC(OCc2c(-c4ccccc4OC(F)(F)F)noc2C2CC2)C3)c1 (centres unmarked) [Example 748]	103	10 to 100 nM	–
O=C(Nc1cccc(-c2ccc(C(F)(F)F)nc2)c1)N1C2CCC1CC(OCc1c(-c3c(Cl)cccc3Cl)noc1C1CC1)C2 (centres unmarked) [Example 706]	207	10 to 100 nM	–
COC(=O)c1c(F)cc(NC(=O)N2C3CCC2CC(OCc2c(-c4c(Cl)cccc4Cl)noc2C2CC2)C3)cc1F (centres unmarked) [Example 198]	–	< 10 nM	–
Cn1nnc(-c2cccc(NC(=O)N3C4CCC3CC(OCc3c(-c5c(Cl)cccc5Cl)noc3C3CC3)C4)c2)n1 (centres unmarked) [Example 187]	–	10 to 100 nM	–
O=C(O)c1ccc(NC(=O)N2C3CCC2CC(NCc2c(-c4c(Cl)cccc4Cl)noc2C2CC2)C3)cc1 (centres unmarked) [Example 826]	63	10 to 100 nM	–
COC(=O)c1ccc2nc(NC(=O)N3C4CCC3CC(OCc3c(-c5c(Cl)cccc5Cl)noc3C3CC3)C4)ccc2c1 (centres unmarked) [Example 785]	46	10 to 100 nM	–
O=C(Nc1cnc2ccccc2c1)N1C2CCC1CC(OCc1c(-c3c(Cl)cccc3Cl)noc1C1CC1)C2 (centres unmarked) [Example 21]	–	10 to 100 nM	–
COC(=O)c1ccc(NC(=O)N2C3CCC2CC(OCc2c(-c4c(Cl)cccc4Cl)noc2C2CC2)C3)c(C#N)c1 (centres unmarked) [Example 802]	28	100 to 1000 nM	–
O=C(O)c1ccc(NC(=O)N2C3CCC2CC(OCc2c(-c4ccccc4C4CC4)noc2C2CC2)C3)c(C(F)(F)F)c1 (centres unmarked) [Example 820]	13	10 to 100 nM	–
O=C(O)c1ccc(NC(=O)N2C3CCC2CC(OCc2c(-c4c(F)cccc4F)noc2C2CC2)C3)c(F)c1 (centres unmarked) [Example 808]	32	10 to 100 nM	–
O=C(NS(=O)(=O)C1CC1)c1ccc(NC(=O)N2C3CCC2CC(OCc2c(-c4ccccc4OC(F)(F)F)noc2C2CC2)C3)cc1 (centres unmarked) [Example 755]	220	100 to 1000 nM	–
O=C(O)c1cccc(NC(=O)N2C3CCC2CC(OCc2c(-c4c(Cl)cccc4Cl)noc2C2CC2)C3)c1 (centres unmarked) [Example 183]	–	100 to 1000 nM	–
CCOC(=O)c1ccc(NC(=O)N2C3CCC2CC(OCc2c(-c4c(Cl)cccc4Cl)noc2C2CC2)C3)cc1 (centres unmarked) [Example 182]	–	10 to 100 nM	–

SMILES	Emax [1] [%]	EC50	Emax [%]
O=C(O)c1cccc(NC(=O)N2C3CCC2CC(NCc2c(-c4c(Cl)cccc4Cl)noc2C2CC2)C3)c1 (centres unmarked) [Example 828]	59	10 to 100 nM	–
O=C(O)c1ccc2c(c1)CN(C(=O)N1C3CCC1CC(OCc1c(-c4ccccc4OC(F)(F)F)noc1C1CC1)C3)C2 (centres unmarked) [Example 598]	–	10 to 100 nM	105
O=C(Nc1ccc(F)c(C(F)(F)F)c1)N1C2CCC1CC(OCc1c(-c3c(Cl)cccc3Cl)noc1C1CC1)C2 (centres unmarked) [Example 702]	258	< 10 nM	–
O=C(O)c1cnc2ccc(NC(=O)N3C4CCC3CC(OCc3c(-c5c(Cl)cccc5Cl)noc3C3CC3)C4)cc2c1 (centres unmarked) [Example 211]	–	100 to 1000 nM	–
CCOc1cc(C(=O)O)ccc1NC(=O)N1C2CCC1CC(NCc1c(-c3c(Cl)cccc3Cl)noc1C1CC1)C2 (centres unmarked) [Example 830]	82	< 10 nM	–
CS(=O)(=O)NC(=O)c1cccc(NC(=O)N2C3CCC2CC(OCc2c(-c4ccccc4OC(F)(F)F)noc2C2CC2)C3)c1 (centres unmarked) [Example 262]	–	> 1000 nM	–
COc1cc(C(=O)O)c(-c2ccccc2)cc1NC(=O)N1C2CCC1CC(OCc1c(-c3c(Cl)cccc3Cl)noc1C1CC1)C2 (centres unmarked) [Example 793]	99	< 10 nM	–
O=C(O)c1cnc2cc(NC(=O)N3C4CCC3CC(OCc3c(-c5c(Cl)cccc5Cl)noc3C3CC3)C4)ccc2c1 (centres unmarked) [Example 779]	50	10 to 100 nM	–
CCOC(=O)c1ccc(NC(=O)N2C3CCC2CC(NCc2c(-c4c(Cl)cccc4Cl)noc2C2CC2)C3)cc1 (centres unmarked) [Example 825]	104	10 to 100 nM	–
O=C(NCc1ccc(F)c(F)c1)N1C2CCC1CC(OCc1c(-c3c(Cl)cccc3Cl)noc1C1CC1)C2 (centres unmarked) [Example 733]	175	< 10 nM	–
O=C(O)c1cc(F)c(NC(=O)N2C3CCC2CC(OCc2c(-c4c(Cl)cccc4Cl)noc2C2CC2)C3)cc1-c1ccccc1 (centres unmarked) [Example 797]	129	< 10 nM	–
O=C(O)c1ccc(NC(=O)N2C3CCC2CC(OCc2c(-c4ccccc4C4CC4)noc2C2CC2)C3)c(F)c1 (centres unmarked) [Example 809]	43	10 to 100 nM	–
COC(=O)c1ccc(F)c(NC(=O)N2C3CCC2CC(OCc2c(-c4c(Cl)cccc4Cl)noc2C2CC2)C3)c1 (centres unmarked) [Example 722]	115	< 10 nM	–
CN(C)S(=O)(=O)NC(=O)c1ccc(NC(=O)N2C3CCC2CC(OCc2c(-c4c(Cl)cccc4Cl)noc2C2CC2)C3)cc1 (centres unmarked) [Example 695]	140	10 to 100 nM	–
CCOc1cc(C(=O)O)ccc1NC(=O)N1C2CCC1CC(NCc1c(-c3ccccc3OC(F)(F)F)noc1C1CC1)C2 (centres unmarked) [Example 832]	50	10 to 100 nM	–
O=C(Nc1cc(F)c(F)c(F)c1)N1C2CCC1CC(OCc1c(-c3c(Cl)cccc3Cl)noc1C1CC1)C2 (centres unmarked) [Example 10]	–	10 to 100 nM	–
O=C(O)c1cccc(NC(=O)N2C3CCC2CC(OCc2c(-c4ccccc4OC(F)(F)F)noc2C2CC2)C3)n1 (centres unmarked) [Example 771]	54	> 1000 nM	–
O=C(Nc1ccccc1)N1C2CCC1CC(OCc1c(-c3c(Cl)cccc3Cl)noc1C1CC1)C2 (centres unmarked) [Example 696]	246	< 10 nM	–
Cn1cc(-c2cc(NC(=O)N3C4CCC3CC(OCc3c(-c5c(Cl)cccc5Cl)noc3C3CC3)C4)ccc2C(=O)O)cn1 (centres unmarked) [Example 776]	11	100 to 1000 nM	–
COC(=O)c1cc(NC(=O)N2C3CCC2CC(OCc2c(-c4c(Cl)cccc4Cl)noc2C2CC2)C3)cc(-c2cccnc2)c1 (centres unmarked) [Example 726]	81	< 10 nM	–
CCOC(=O)c1ccc(NC(=O)N2C3CCC2CC(OCc2c(-c4c(Cl)cccc4Cl)noc2C2CC2)C3)cc1-c1cncnc1 (centres unmarked) [Example 778]	248	< 10 nM	–
O=C(Nc1cccc(-c2ccccc2)c1)N1C2CCC1CC(OCc1c(-c3c(Cl)cccc3Cl)noc1C1CC1)C2 (centres unmarked) [Example 729]	148	< 10 nM	–
